Experimental data taken from ChEMBL document CHEMBL3885881, “DrugMatrix”.
Values joined by “and” are separate entries in the source; they are usually repeats but may differ in a detail not shown here. Equal entries are not always repeated.

Species on record: Rattus norvegicus
Assay: DrugMatrix - Regimen: Daily Repeat
Format: toxicity, organism-based, Sprague-Dawley
Parameters: regimen Daily Repeat, gender Male, age 6-8 weeks
Conditions: in vivo, ip, route intraperitoneal, vehicle 100 % SALINE; for ABSOLUTE BASOPHIL / ABSOLUTE EOSINOPHIL / ABSOLUTE LYMPHOCYTE / ABSOLUTE MONOCYTE / BASOPHIL / EOSINOPHIL / ERYTHROCYTE COUNT / HEMATOCRIT / HEMOGLOBIN / LEUKOCYTE COUNT / LYMPHOCYTE / MEAN CORPUSCULAR HEMOGLOBIN / MEAN CORPUSCULAR HEMOGLOBIN CONCENTRATION / MEAN CORPUSCULAR VOLUME / MONOCYTE / NEUTROPHIL / PLATELET COUNT: tissue Blood; for ALANINE AMINOTRANSFERASE / ALBUMIN / ALKALINE PHOSPHATASE / ASPARTATE AMINOTRANSFERASE / BLOOD UREA NITROGEN / CARBON DIOXIDE / CHOLESTEROL / CREATININE / GLUCOSE / LACTATE DEHYDROGENASE / LIPASE / PHOSPHORUS / POTASSIUM / SODIUM / TOTAL BILIRUBIN / URIC ACID / CHLORIDE: tissue Plasma
[1] = 0 mg/kg, 120 h, dose level Control, time 5 day
[2] = 0 mg/kg, […], dose level Control, time 14 day
[3] = 0 mg/kg, […], dose level Control, time 28 day
[4] = 0.5 mg/kg, 120 h, dose level High, time 5 day
[5] = 0.5 mg/kg, […], dose level High, time 14 day
[6] = 0.5 mg/kg, […], dose level High, time 28 day

CISPLATIN gave an ABSOLUTE BASOPHIL [1] of 32 cells/µL, an ABSOLUTE EOSINOPHIL [1] of 110 cells/µL and an ABSOLUTE LYMPHOCYTE [1] of 6630 cells/µL. The ABSOLUTE MONOCYTE [1] was 140 cells/µL, the BASOPHIL [1] was 0.38% and 0.35% and the EOSINOPHIL [1] was 1.28% and 0.62%. For the same sequence, the “ERYTHROCYTE COUNT” value [1] was 7.45 x10E6/uL and 7.26 x10E6/uL, the HEMATOCRIT [1] was 45.74% and 47.97% and the HEMOGLOBIN [1] was 14.72 G/DL and 15.38 G/DL. The “LEUKOCYTE COUNT” value [1] was 8.11 x10E3/uL and 8.68 x10E3/uL, the LYMPHOCYTE [1] was 81.3% and 86.77% and the “MEAN CORPUSCULAR HEMOGLOBIN” value [1] was 19.76 pg and 21.18 pg. For the same sequence, the “MEAN CORPUSCULAR HEMOGLOBIN CONCENTRATION” value [1] was 32.16 G/DL and 32.05 G/DL, the “MEAN CORPUSCULAR VOLUME” value [1] was 61.38 fL and 66.15 fL and the MONOCYTE [1] was 1.76% and 1.57%. For the same sequence, the NEUTROPHIL [1] was 14.9% and 9.53%, the “PLATELET COUNT” value [1] was 1322.4 x10E3/uL and 1786 x10E3/uL and the “ALANINE AMINOTRANSFERASE” value [1] was 25.8 u/L and 20.5 u/L. For the same sequence, the ALBUMIN [1] was 3.64 G/DL and 4.35 G/DL, the “ALKALINE PHOSPHATASE” value [1] was 300 u/L and the “ASPARTATE AMINOTRANSFERASE” value [1] was 81.4 u/L and 86.75 u/L. For the same sequence, the “BLOOD UREA NITROGEN” value [1] was 14.4 mg/dL and 17 mg/dL, the “CARBON DIOXIDE” value [1] was 29 mmol/L and the CHOLESTEROL [1] was 69.2 mg/dL and 51.25 mg/dL. For the same sequence, the CREATININE [1] was 0.56 mg/dL and 0.47 mg/dL, the GLUCOSE [1] was 125.4 mg/dL and 128.75 mg/dL and the “LACTATE DEHYDROGENASE” value [1] was 105.4 u/L and 145 u/L. The LIPASE [1] was 22.4 u/L and 13.25 u/L, the PHOSPHORUS [1] was 11.8 mg/dL and the POTASSIUM [1] was 5.52 MEQ/L and 6.58 MEQ/L. The SODIUM [1] was 147 MEQ/L and 151 MEQ/L, the “TOTAL BILIRUBIN” value [1] was 0.2 mg/dL and 0.33 mg/dL and the “URIC ACID” value [1] was 1.06 mg/dL and 1.95 mg/dL. For the same sequence, the ABSOLUTE BASOPHIL [2] was 130 cells/µL, the ABSOLUTE EOSINOPHIL [2] was 140 cells/µL and the ABSOLUTE LYMPHOCYTE [2] was 13500 cells/µL. For the same sequence, the ABSOLUTE MONOCYTE [2] was 400 cells/µL, the HEMATOCRIT [2] was 45.98% and the HEMOGLOBIN [2] was 15.17 G/DL. The “MEAN CORPUSCULAR VOLUME” value [2] was 59.4 fL, the NEUTROPHIL [2] was 14.14% and the ABSOLUTE BASOPHIL [3] was 91 cells/µL. The ABSOLUTE EOSINOPHIL [3] was 110 cells/µL, the ABSOLUTE LYMPHOCYTE [3] was 9910 cells/µL and the ABSOLUTE MONOCYTE [3] was 210 cells/µL. For the same sequence, the BASOPHIL [3] was 0.77%, the EOSINOPHIL [3] was 0.92% and the “ERYTHROCYTE COUNT” value [3] was 8.21 x10E6/uL. The HEMATOCRIT [3] was 47.53%, the HEMOGLOBIN [3] was 15.65 G/DL and the “LEUKOCYTE COUNT” value [3] was 11.91 x10E3/uL. For the same sequence, the LYMPHOCYTE [3] was 83.34%, the “MEAN CORPUSCULAR HEMOGLOBIN” value [3] was 19.07 pg and the “MEAN CORPUSCULAR HEMOGLOBIN CONCENTRATION” value [3] was 32.93 G/DL. The “MEAN CORPUSCULAR VOLUME” value [3] was 57.9 fL, the MONOCYTE [3] was 1.68% and the NEUTROPHIL [3] was 12.97%. For the same sequence, the “PLATELET COUNT” value [3] was 1323.8 x10E3/uL, the ALBUMIN [2] was 3.66 G/DL and the “CARBON DIOXIDE” value [2] was 25 mmol/L. For the same sequence, the CHLORIDE [2] was 107 MEQ/L, the SODIUM [2] was 149.2 MEQ/L and the “URIC ACID” value [2] was 0.94 mg/dL. The “ALANINE AMINOTRANSFERASE” value [3] was 30 u/L, the ALBUMIN [3] was 3.71 G/DL and the “ALKALINE PHOSPHATASE” value [3] was 186.8 u/L. The “ASPARTATE AMINOTRANSFERASE” value [3] was 78.2 u/L, the “BLOOD UREA NITROGEN” value [3] was 14.2 mg/dL and the CHOLESTEROL [3] was 44.9 mg/dL. For the same sequence, the CREATININE [3] was 0.6 mg/dL, the GLUCOSE [3] was 147.2 mg/dL and the “LACTATE DEHYDROGENASE” value [3] was 123.1 u/L. The LIPASE [3] was 9.6 u/L, the PHOSPHORUS [3] was 10.01 mg/dL and the POTASSIUM [3] was 6.57 MEQ/L. The SODIUM [3] was 149.5 MEQ/L, the “TOTAL BILIRUBIN” value [3] was 0.21 mg/dL and the “URIC ACID” value [3] was 1.26 mg/dL. For the same sequence, the ABSOLUTE BASOPHIL [4] was 26 cells/µL, the ABSOLUTE EOSINOPHIL [4] was 92 cells/µL and the ABSOLUTE LYMPHOCYTE [4] was 5270 cells/µL. The ABSOLUTE MONOCYTE [4] was 150 cells/µL, the BASOPHIL [4] was 0.36% and 0.28% and the EOSINOPHIL [4] was 1.46% and 0.85%. The “ERYTHROCYTE COUNT” value [4] was 7.52 x10E6/uL and 7.82 x10E6/uL, the HEMATOCRIT [4] was 46.92% and 52.02% and the HEMOGLOBIN [4] was 16.7 G/DL. The “LEUKOCYTE COUNT” value [4] was 6.24 x10E3/uL and 6.92 x10E3/uL, the LYMPHOCYTE [4] was 84.62% and 88.4% and the “MEAN CORPUSCULAR HEMOGLOBIN” value [4] was 20.1 pg and 21.33 pg. The “MEAN CORPUSCULAR HEMOGLOBIN CONCENTRATION” value [4] was 32.2 G/DL and 32.05 G/DL, the “MEAN CORPUSCULAR VOLUME” value [4] was 66.5 fL and the MONOCYTE [4] was 2.36% and 1.6%. For the same sequence, the NEUTROPHIL [4] was 10.88% and 7.72%, the “PLATELET COUNT” value [4] was 1593.2 x10E3/uL and 1552.25 x10E3/uL and the “ALANINE AMINOTRANSFERASE” value [4] was 25 u/L and 19.25 u/L. For the same sequence, the ALBUMIN [4] was 3.66 G/DL and 4.4 G/DL, the “ALKALINE PHOSPHATASE” value [4] was 215.2 u/L and 294.25 u/L and the “ASPARTATE AMINOTRANSFERASE” value [4] was 75.2 u/L and 87.5 u/L. The “BLOOD UREA NITROGEN” value [4] was 13.8 mg/dL and 15 mg/dL, the “CARBON DIOXIDE” value [4] was 25.25 mmol/L and the CHLORIDE [4] was 106.6 MEQ/L and 107.25 MEQ/L. For the same sequence, the CHOLESTEROL [4] was 54.4 mg/dL and 68 mg/dL, the CREATININE [4] was 0.54 mg/dL and 0.5 mg/dL and the GLUCOSE [4] was 136.8 mg/dL and 138.75 mg/dL. The LIPASE [4] was 26.8 u/L and 10 u/L, the POTASSIUM [4] was 5.54 MEQ/L and 5.67 MEQ/L and the SODIUM [4] was 146.2 MEQ/L and 152.25 MEQ/L. For the same sequence, the “TOTAL BILIRUBIN” value [4] was 0.18 mg/dL and 0.43 mg/dL, the “URIC ACID” value [4] was 1.34 mg/dL and 2.38 mg/dL and the ABSOLUTE BASOPHIL [5] was 36 cells/µL. It also gave an ABSOLUTE EOSINOPHIL [5] of 56 cells/µL, an ABSOLUTE LYMPHOCYTE [5] of 7470 cells/µL and an ABSOLUTE MONOCYTE [5] of 180 cells/µL. The “MEAN CORPUSCULAR HEMOGLOBIN” value [5] was 19.97 pg, the ABSOLUTE BASOPHIL [6] was 87.8 cells/µL and the ABSOLUTE EOSINOPHIL [6] was 85.6 cells/µL. It also gave an ABSOLUTE LYMPHOCYTE [6] of 8670 cells/µL, an ABSOLUTE MONOCYTE [6] of 180 cells/µL and a BASOPHIL [6] of 0.8%. The EOSINOPHIL [6] was 0.83%, the “ERYTHROCYTE COUNT” value [6] was 9.05 x10E6/uL and the HEMATOCRIT [6] was 52.96%. For the same sequence, the HEMOGLOBIN [6] was 17.03 G/DL, the “LEUKOCYTE COUNT” value [6] was 10.42 x10E3/uL and the LYMPHOCYTE [6] was 83.03%. The “MEAN CORPUSCULAR HEMOGLOBIN” value [6] was 18.84 pg, the “MEAN CORPUSCULAR HEMOGLOBIN CONCENTRATION” value [6] was 32.23 G/DL and the “MEAN CORPUSCULAR VOLUME” value [6] was 58.53 fL. The MONOCYTE [6] was 1.62%, the NEUTROPHIL [6] was 13.3% and the “PLATELET COUNT” value [6] was 1272.33 x10E3/uL. The ALBUMIN [5] was 3.38 G/DL, the “CARBON DIOXIDE” value [5] was 22.25 mmol/L and the CHLORIDE [5] was 111.6 MEQ/L. The “ALANINE AMINOTRANSFERASE” value [6] was 30.78 u/L.
